Potency and CF data for 16 compounds are collected here from ChEMBL document CHEMBL1126455, “Syntheses of new metabolically stabilized TXA2/PGH2-receptor antagonists and their biological properties” (1992).

The structures appear in SMILES notation.

The species named for one test is Homo sapiens. Description: Potency of was determined relative to the SQ 29548 by inhibition of aggregation of human platelet rich plasma induced by 10*-6 M U 46619. Format: functional.
Test [1] deals with T1, Thromboxane A2 receptor (Homo sapiens) (UniProt P21731).
T1 sequence (whole entry): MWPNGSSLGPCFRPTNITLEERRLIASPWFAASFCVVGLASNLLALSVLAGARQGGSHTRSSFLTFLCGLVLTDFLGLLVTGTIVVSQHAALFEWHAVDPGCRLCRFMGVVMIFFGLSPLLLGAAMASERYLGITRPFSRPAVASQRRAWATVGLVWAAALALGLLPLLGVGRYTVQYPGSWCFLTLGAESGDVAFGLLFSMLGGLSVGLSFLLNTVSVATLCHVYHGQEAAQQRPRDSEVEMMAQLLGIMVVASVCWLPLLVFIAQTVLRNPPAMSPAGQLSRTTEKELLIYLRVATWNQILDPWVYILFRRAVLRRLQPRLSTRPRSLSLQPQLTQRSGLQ
Description: Competition factor for Thromboxane A2 receptor/Prostaglandin H2 receptor was determined by CF=(ID50-test)/(ID50-standard).

Regarding `O=C(O)COCCCC[C@H]1[C@H](CNS(=O)(=O)c2ccc(Cl)cc2)C2CC1(c1ccc(F)cc1)CO2` (some centres not stated), in the test listed under Homo sapiens, the Potency was determined as 0.08. The same compound showed a CF in test [1] of 0.1.
`O=C(O)COCCCC[C@H]1[C@H](CNS(=O)(=O)c2ccc(Cl)c(Cl)c2)C2CC1(c1ccc(-c3ccccc3)cc1)CO2` (some centres not stated): in the test listed under Homo sapiens, the Potency is given as 0.03. Also, the CF in test [1] turned out to be 3.
With `Cc1ccc(S(=O)(=O)N[C@@H]2C3CC(c4ccc(F)cc4)(CO3)[C@H]2C/C=C\COCC(=O)O)cc1` (some centres not stated), the Potency in the test listed under Homo sapiens is listed as 0.003. Besides, the CF in test [1] turned out to be 170.
Consider `O=C(O)CCC/C=C\C[C@H]1[C@H](CNS(=O)(=O)c2ccc(Cl)cc2)C2CC1(c1ccc(F)cc1)CO2` (some centres not stated), for which the Potency in the test listed under Homo sapiens was determined as 0.01. The CF in test [1] came out at 0.2.
For `O=C(O)COCCCC[C@H]1[C@H](CNS(=O)(=O)c2ccc(F)cc2)C2CC1(c1ccc(F)cc1)CO2` (some centres not stated), the Potency in the test listed under Homo sapiens was 0.08. In test [1], this compound displayed a CF of 0.5.
On the same counts, the results for `Cc1ccc(S(=O)(=O)N[C@@H]2C3CC(c4ccc(F)cc4)(CO3)[C@H]2CCCCOCC(=O)O)cc1` (some centres not stated) are 0.003 and 27.
In the same order, the values of `O=C(O)CCC/C=C\C[C@H]1[C@H](NS(=O)(=O)c2ccc(F)cc2)C2CC1(c1ccc(F)cc1)CO2` (some centres not stated) are 0.0004 and 120.
In the same order, the values of `O=C(O)CCC/C=C\C[C@H]1[C@H](CNS(=O)(=O)c2ccc(Cl)c(Cl)c2)C2CC1(c1ccc(-c3ccccc3)cc1)CO2` (some centres not stated) are 0.01 and 4.2.
`O=C(O)COCC=CC[C@H]1[C@H](NS(=O)(=O)c2ccc(F)cc2)C2CC1(c1ccc(F)cc1)CO2` (some centres not stated) showed a Potency in the test filed under Homo sapiens of 0.003. In test [1], this compound came in with a CF of 400.
On the same counts, the results for `O=C(O)CCC/C=C\C[C@H]1[C@H](CNS(=O)(=O)c2ccc(Cl)c(Cl)c2)C2CC1(c1ccc(F)cc1)CO2` (some centres not stated) are 0.01 and 0.5.
In the test listed under Homo sapiens, `O=C(O)CCCCCC[C@H]1[C@H](CNS(=O)(=O)c2ccc(Cl)c(Cl)c2)C2CC1(c1ccc(-c3ccccc3)cc1)CO2` (some centres not stated) had a Potency of 0.01. Also, in test [1], the CF was found to be 12.
`O=C(O)CCC/C=C\C[C@H]1[C@H](CNS(=O)(=O)c2ccc(F)cc2)C2CC1(c1ccc(F)cc1)CO2` (some centres not stated) registered a Potency in the test filed under Homo sapiens of 0.03. The same compound returned a CF in test [1] of 0.3.
On the same counts, the results for `Cc1ccc(S(=O)(=O)NC[C@@H]2C3CC(c4ccc(F)cc4)(CO3)[C@H]2CCCCOCC(=O)O)cc1` (some centres not stated) are 0.03 and 0.4.
In the same order, the values of `O=C(O)COCCCC[C@H]1[C@H](CNS(=O)(=O)c2ccc(Cl)c(Cl)c2)C2CC1(c1ccc(F)cc1)CO2` (some centres not stated) are 0.08 and 0.4.
Turning to `Cc1ccc(S(=O)(=O)NC[C@@H]2C3CC(c4ccc(F)cc4)(CO3)[C@H]2C/C=C\CCCC(=O)O)cc1` (some centres not stated), in the test filed under Homo sapiens, the Potency is on record as 0.01. Moreover, in test [1], the CF amounted to 0.4.
On the same counts, the results for `Cc1ccc(S(=O)(=O)N[C@@H]2C3CC(c4ccc(F)cc4)(CO3)[C@H]2C/C=C\CCCC(=O)O)cc1` (some centres not stated) are 0.001 and 45.
